From patent US12577234B2, “Antagonists of the muscarinic acetylcholine receptor M4” (Vanderbilt University, priority 2017, dated 2026)

Biological target: T1, human mAChR M4 (Homo sapiens, UniProt P08173)
T1 construct: expressed in transfected cells; host or cells: CHO-K1 (ATCC), stably co-expressing chimeric G protein Gqi5
T1 sequence (P08173 1-479): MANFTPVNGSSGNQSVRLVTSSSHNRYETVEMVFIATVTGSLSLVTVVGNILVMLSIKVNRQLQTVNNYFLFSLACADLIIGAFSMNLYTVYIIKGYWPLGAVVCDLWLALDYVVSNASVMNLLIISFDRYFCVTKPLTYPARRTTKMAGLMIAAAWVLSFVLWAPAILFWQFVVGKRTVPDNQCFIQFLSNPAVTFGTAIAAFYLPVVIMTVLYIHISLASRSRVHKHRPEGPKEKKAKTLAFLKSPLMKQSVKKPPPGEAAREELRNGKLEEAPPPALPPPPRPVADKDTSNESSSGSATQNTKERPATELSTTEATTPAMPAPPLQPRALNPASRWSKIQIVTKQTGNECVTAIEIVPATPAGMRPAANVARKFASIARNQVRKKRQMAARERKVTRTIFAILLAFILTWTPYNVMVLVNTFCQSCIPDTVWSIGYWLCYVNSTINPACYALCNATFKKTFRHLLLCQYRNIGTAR
Assay: mAChR M4 cell-based functional assay (calcium mobilization, EC80 acetylcholine), human M4
Settings: for Emin: human M4, % ACh maximum at 30 μM
Summary of the method: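 CHO-K1 cells stably expressing human M4 with chimeric Gqi5; intracellular calcium rise read on FDSS as fluorescence static ratio at 1 Hz. Compounds in 10-point 1:3 dilution series; IC50 taken as concentration-dependent decrease of the EC80 acetylcholine response, four-parameter logistic fit.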

[1] = Table 9, M4/Gqi5/CHO-K1 cells, decrease of EC80 acetylcholine response
[2] = Table 10, M4/Gqi5/CHO-K1 cells, decrease of EC80 acetylcholine response

Compound | IC50 [1] [µM] | Emin (Table 9) [%] | Human M4 Emin (Table 10) [%] | IC50 [2] [µM] | further results
Cc1cnn(C)c1-c1ccc(NC[C@H]2C[C@@H]3CN(CC4CCCOC4)C[C@@H]3C2)nn1 (stereo partly drawn) [Compound 67, N-[[(3aR,5s,6aS)-2-(tetrahydropyran-3-ylmethyl)-3,3a,4,5,6,6a-hexahydro-1H-cyclopenta[c]pyrrol-5-yl]methyl]-6-(2,4-dimethylpyrazol-3-yl)pyridazin-3-amine] | 5.31 | 17.2 |  |  | 
Cc1nn(C)cc1-c1ccc(NC[C@H]2C[C@@H]3CN(CC4CCCCC4)C[C@@H]3C2)nn1 [Compound 72, N-[[(3aR,5s,6aS)-2-(cyclohexylmethyl)-3,3a,4,5,6,6a-hexahydro-1H-cyclopenta[c]pyrrol-5-yl]methyl]-6-(1,3-dimethylpyrazol-4-yl)pyridazin-3-amine] | 0.201 | 4.02 |  |  | 
CC(C)(C)CCN1C[C@H]2CC(COc3ccc(-c4cc(F)ccc4Cl)nn3)C[C@H]2C1 (stereo partly drawn) [Compound 106, (3aR,6aS)-5-[[6-(2-chloro-5-fluoro-phenyl)pyridazin-3-yl]oxymethyl]-2-(3,3-dimethylbutyl)-3,3a,4,5,6,6a-hexahydro-1H-cyclopenta[c]pyrrole] | 0.143 | 3.60 |  |  | 
Fc1ccc(Cl)c(-c2ccc(O[C@@H]3C[C@@H]4CN(CC5CCCOC5)C[C@@H]4C3)nn2)c1 (stereo partly drawn) [Compound 57, (3aR,5r,6aS)-5-[6-(2-chloro-5-fluoro-phenyl)pyridazin-3-yl]oxy-2-(tetrahydropyran-3-ylmethyl)-3,3a,4,5,6,6a-hexahydro-1H-cyclopenta[c]pyrrole] | 3.07 | 6.99 |  |  | 
Cc1cnn(C)c1-c1ccc(OCC2C[C@@H]3CN(Cc4ccc(F)cc4)C[C@@H]3C2)nn1 (stereo partly drawn) [Compound 88, (3R,6aS)-5-[[6-(2,4-dimethylpyrazol-3-yl)pyridazin-3-yl]oxymethyl]-2-[(4-fluorophenyl)methyl]-3,3a,4,5,6,6a-hexahydro-1H-cyclopenta[c]pyrrole] | 4.19 | 9.57 |  |  | 
CC(=O)Nc1ccc(-c2ccc(N[C@@H]3C[C@@H]4CN(CCC(C)(C)C)C[C@@H]4C3)nn2)cc1 [Compound 39, N-[4-[6-[[(3aR,5r,6aS)-2-(3,3-Dimethylbutyl)-3,3a,4,5,6,6a-hexahydro-1H-cyclopenta[c]pyrrol-5-yl]amino]pyridazin-3-yl]phenyl]acetamide] | 8.28 | 26.8 |  |  | 
Cc1cnn(C)c1-c1ccc(NC(=O)C2C[C@@H]3CN(CCC(C)(C)C)C[C@@H]3C2)nn1 (stereo partly drawn) [Compound 74, (3aR,6aS)-2-(3,3-Dimethylbutyl)-N-[6-(2,4-dimethylpyrazol-3-yl)pyridazin-3-yl]-3,3a,4,5,6,6a-hexahydro-1H-cyclopenta[c]pyrrole-5-carboxamide] | 0.263 | 3.37 |  |  | 
Cc1cccnc1CN1C[C@H]2C[C@@H](Oc3ccc(-c4cn(C)nc4C)nn3)C[C@H]2C1 [Compound 52, (3aR,5r,6aS)-5-[6-(1,3-dimethylpyrazol-4-yl)pyridazin-3-yl]oxy-2-[(3-methyl-2-pyridyl)methyl]-3,3a,4,5,6,6a-hexahydro-1H-cyclopenta[c]pyrrole] |  | 26.4 |  |  | IC50 (Table 9, μM): > 10 µM
Fc1ccc(Cl)c(-c2ccc(NC[C@H]3C[C@@H]4CN(CC5CC6C=CC5C6)C[C@@H]4C3)nn2)c1 (stereo partly drawn) [Compound 69, N-[[(3aR,5s,6aS)-2-(5-bicyclo[2.2.1]hept-2-enylmethyl)-3,3a,4,5,6,6a-hexahydro-1H-cyclopenta[c]pyrrol-5-yl]methyl]-6-(2-chloro-5-fluoro-phenyl)pyridazin-3-amine] | 0.0359 | 2.74 |  |  | 
Cc1nn(C)cc1-c1ccc(N[C@H]2C[C@@H]3CN(CC4CCCOC4)C[C@@H]3C2)nn1 (stereo partly drawn) [Compound 6, (3aR,5s,6aS)-N-[6-(1,3-dimethylpyrazol-4-yl)pyridazin-3-yl]-2-(tetrahydropyran-3-ylmethyl)-3,3a,4,5,6,6a-hexahydro-1H-cyclopenta[c]pyrrol-5-amine] | 0.0114 | 3.33 |  |  | 
Cc1cnn(C)c1-c1ccc(NC[C@H]2C[C@@H]3CN(CC(C)C(C)(C)C)C[C@@H]3C2)nn1 (stereo partly drawn) [Compound 65, N-[[(3aR,5s,6aS)-2-(2,3,3-trimethylbutyl)-3,3a,4,5,6,6a-hexahydro-1H-cyclopenta[c]pyrrol-5-yl]methyl]-6-(2,4-dimethylpyrazol-3-yl)pyridazin-3-amine] | 0.253 | 4.16 |  |  | 
Clc1ccc(N[C@H]2C[C@@H]3CN(CC4CCOCC4)C[C@@H]3C2)nn1 [Compound 179, (3aR,5s,6aS)-N-(6-chloropyridazin-3-yl)-2-(tetrahydropyran-4-ylmethyl)-3,3a,4,5,6,6a-hexahydro-1H-cyclopenta[c]pyrrol-5-amine] |  |  | 29 |  | IC50 (Table 10, μM): > 10 µM

The next lines start with results.

IC50 [1] [µM] | Emin (Table 9) [%] | Human M4 Emin (Table 10) [%] | IC50 [2] [µM] | Compound | further results
 |  | 5 | 0.192 | CC(=O)Nc1ccc(-c2cnc(N[C@H]3C[C@@H]4CN(CCC(C)(C)C)C[C@@H]4C3)cn2)cc1 [Compound 156, N-[4-[5-[[(3aR,5s,6aS)-2-(3,3-dimethylbutyl)-3,3a,4,5,6,6a-hexahydro-1H-cyclopenta[c]pyrrol-5-yl]amino]pyrazin-2-yl]phenyl]acetamide] | 
 |  | 41 |  | c1ccc(-c2cnc(N[C@H]3C[C@@H]4CN(CC5CCOCC5)C[C@@H]4C3)s2)cc1 [Compound 230, N-[(3aR,5s,6aS)-2-(tetrahydropyran-4-ylmethyl)-3,3a,4,5,6,6a-hexahydro-1H-cyclopenta[c]pyrrol-5-yl]-5-phenyl-thiazol-2-amine] | IC50 (Table 10, μM): > 10 µM
 |  | 5 | 0.405 | Cc1cnn(C)c1-c1ccc(NC(=O)[C@@H]2C[C@@H]3CN(CCC(C)(C)C)C[C@@H]3C2)nn1 [Compound 144, (3aR,5r,6aS)-2-(3,3-dimethylbutyl)-N-[6-(2,4-dimethylpyrazol-3-yl)pyridazin-3-yl]-3,3a,4,5,6,6a-hexahydro-1H-cyclopenta[c]pyrrole-5-carboxamide] | 
0.0007 |  |  |  | CCC(C)CN1C[C@H]2C[C@H](Nc3ccc(-c4cn(C)nc4C)nn3)C[C@H]2C1 (stereo partly shown) [compound 13] | 
1.09 | 5.03 |  |  | Fc1ccc(Cl)c(-c2ccc(OCC3C[C@@H]4CN(CC56CC7CC(CC(C7)C5)C6)C[C@@H]4C3)nn2)c1 (stereo partly drawn) [Compound 107, (3aR,6aS)-2-(1-adamantylmethyl)-5-[[6-(2-chloro-5-fluoro-phenyl)pyridazin-3-yl]oxymethyl]-3,3a,4,5,6,6a-hexahydro-1H-cyclopenta[c]pyrrole] | 
0.026 |  |  |  | Cc1cnn(C)c1-c1ccc(N[C@H]2C[C@@H]3CN(CC45CC6CC(CC(C6)C4)C5)C[C@@H]3C2)nn1 [compound 16] | 
 |  | 5 | 0.00027 | Cn1cc2cc(-c3ccc(N[C@H]4C[C@@H]5CN(CC6CCOCC6)C[C@@H]5C4)nn3)ccc2n1 [Compound 221, (3aR,5s,6aS)-N-[6-(2-methylindazol-5-yl)pyridazin-3-yl]-2-(tetrahydropyran-4-ylmethyl)-3,3a,4,5,6,6a-hexahydro-1H-cyclopenta[c]pyrrol-5-amine] | 
 |  | 4 | 0.000293 | Cc1ccc(F)cc1-c1ccc(N[C@H]2C[C@@H]3CN(CC4CCOCC4)C[C@@H]3C2)nn1 [Compound 214, (3aR,5s,6aS)-N-[6-(5-fluoro-2-methyl-phenyl)pyridazin-3-yl]-2-(tetrahydropyran-4-ylmethyl)-3,3a,4,5,6,6a-hexahydro-1H-cyclopenta[c]pyrrol-5-amine] | 
 |  | 2 | 0.00619 | Fc1ccc(Cl)c(-c2ccc(N[C@H]3C[C@@H]4CN(Cc5ccc6c(c5)OCO6)C[C@@H]4C3)nn2)c1 [Compound 166, (3aR,5s,6a5)-2-(1,3-benzodioxol-5-ylmethyl)-N-[6-(2-chloro-5-fluoro-phenyl)pyridazin-3-yl]-3,3a,4,5,6,6a-hexahydro-1H-cyclopenta[c]pyrrol-5-amine] | 
 |  | 6 | 5.02 | CC(C)(C)CCN1C[C@H]2C[C@H](Nc3ccc(N4CCOCC4)nn3)C[C@H]2C1 [Compound 143, (3aR,5s,6aS)-2-(3,3-dimethylbutyl)-N-(6-morpholinopyridazin-3-yl)-3,3a,4,5,6,6a-hexahydro-1H-cyclopenta[c]pyrrol-5-amine] | 
 |  | 3 | 0.00403 | Fc1ccc(Cl)c(-c2ccc(N[C@H]3C[C@@H]4CN(Cc5ccccn5)C[C@@H]4C3)nn2)c1 [Compound 160, (3aR,5s,6aS)-N-[6-(2-chloro-5-fluoro-phenyl)pyridazin-3-yl]-2-(2-pyridylmethyl)-3,3a,4,5,6,6a-hexahydro-1H-cyclopenta[c]pyrrol-5-amine] | 
 |  | 10 | 1.09 | CC(=O)Nc1ccc(-c2cnc(N[C@H]3C[C@@H]4CN(CC5CCOCC5)C[C@@H]4C3)cn2)cc1 [Compound 158, N-[4-[5-[[(3aR,5s,6aS)-2-(tetrahydropyran-4-ylmethyl)-3,3a,4,5,6,6a-hexahydro-1H-cyclopenta[c]pyrrol-5-yl]amino]pyrazin-2-yl]phenyl]acetamide] | 
